Values quoted from earlier work, collected in paper PMC8549773 (Chemical Science, 2021).

Test system: GCase
Conditions: administered to rats

OC[C@H]1O[C@@H](F)[C@H](F)[C@@H](O)[C@@H]1O [2FGlcF, 2-deoxy-2-fluoro-β-D-glucosyl fluoride]
GCase inactivation in organs: inactivates GCase in all organs, including the brain
